{"source": "patent US20040202713A1", "about": "“Means and method for hormonal contraception” (priority 2001, published 2004)", "key": {"[1]": {"details": "hormone replacement therapy with 17beta-estradiol dydrogesterone (Grisar et al. 1999); cited from earlier work"}, "women [2]": {"test_system": "women", "assay": "Clinical study with dydrogesterone as progestogen-only preparation (Example 3)", "format": "in vivo, human", "details": "20 mg dydrogesterone once a day, uninterrupted for 4 months, 8 women", "procedure": "A clinical study with dydrogesterone as a progestogen-only preparation is conducted in 8 women who were selected on the basis of the criteria mentioned in Example 1. The 8 women receive a 20 mg dosage of dydrogesterone once a day, uninterruptedly during a period of 4 months."}, "[3]": {"details": "compared with commercially used synthetic progestogens; cited from earlier work"}, "women [4]": {"test_system": "women", "assay": "Clinical study in contraception, combined ethinyl estradiol/dydrogesterone regimen (Example 2)", "format": "in vivo, human", "details": "30 μg ethinyl estradiol + 20 mg dydrogesterone daily for 24 days, then 4 days placebo; 8 women", "procedure": "A clinical study in contraception is conducted in 8 women, who were selected on the basis of the criteria mentioned in Example 1, using 30 μg ethinyl estradiol and 20 mg dydrogesterone. The aforementioned dose is administered on a daily basis during 24 days, followed by a hormone-free period placebo's) of 4 days."}, "humans": {"test_system": "humans", "details": "reported by Claassen et al., Acta Endocrinologica (1967); cited from earlier work"}, "young healthy women": {"test_system": "young healthy women", "assay": "Clinical study in contraception, sequential regimen (Example 1): vaginal ultrasonography, endogenous hormones, bleeding pattern", "format": "in vivo, human", "details": "2 mg 17beta-estradiol days 1-14, then 10 mg dydrogesterone + 2 mg 17beta-estradiol days 15-28, single cycle", "source_text": "Women who participated ill the study described in this example were all selected on the basis that they were users of ‘high’ dose monophasic ethinyl estradiol-containing combined oral contraceptives. The reasons for applying this selection criterion was that there is a dose relationship between follicular development and ethinyl estradiol whether given alone or in combination with a progestogen, i.e. less follicular development in the presence of the higher dose. Participation of the females involved in the study started at a moment of (almost) complete suppression of follicular development. This condition is not met if a person has their first day of bleeding in a natural cycle, after a tablet-free interval, or immediately after a low-dose combined oral contraceptive. A clinical study in contraception was conducted in 9 young healthy women who previously used a monophasic oral contraceptive pill with at least 30 microgram of ethinyl estradiol. The women were administered 2 mg 17beta-estradiol during days 1-14 of the cycle. From days. 15 to 28 of the cycle 10 mg dydrogesterone combined with 2 mg 17beta-estradiol was administered. The participants were followed by vaginal ultrasonography and blood sampling for endogenous hormones to assess ovarian function (ovulation-inhibition). Vaginal bleeding pattern and feeling of well being were scored by the participants."}}}
{"smiles": "CC(=O)[C@H]1CC[C@H]2[C@@H]3C=CC4=CC(=O)CC[C@@]4(C)[C@@H]3CC[C@]12C", "note": "[dydrogesterone, 9β,10α-pregna-4,6-diene-3,20-dione]", "values": [{"measurement": "Adverse effects on blood pressure", "setting": "[1]", "value": "no adverse effects on blood pressure"}, {"measurement": "Irregular bleeding", "setting": "women [2]", "value": "some unpredictable irregular bleeding"}, {"measurement": "Menstrual flow", "setting": "women [2]", "value": "reduction of the usual menstrual flow"}, {"measurement": "Ovulation inhibition", "setting": "women [2]", "value": "Ovulation is inhibited"}, {"measurement": "Estrogenic, glucocorticoid, anabolic or androgenic properties", "setting": "[3]", "value": "does not exhibit estrogenic, glucocorticoid, anabolic or androgenic properties"}, {"measurement": "Ovulation inhibition", "setting": "women [4]", "value": "ovulation inhibition is achieved"}, {"measurement": "Withdrawal bleeding", "setting": "women [4]", "value": "Regular withdrawal bleeding occurs in all women"}, {"measurement": "Ovulation inhibition in humans", "setting": "humans", "value": "does not inhibit ovulation in humans"}, {"measurement": "Ovulation inhibition (subjects with inhibition)", "setting": "young healthy women; 9 women", "value": "7 of the 9"}, {"measurement": "Intermenstrual bleeding", "setting": "young healthy women; scored by participants", "value": "No intermenstrual bleeding was observed"}]}
